Non-standard residues stand in square brackets, D forms with d. Residues, ends and D or L forms follow the SMILES beside them. *: point of attachment. DOTA = O=C(O)CN1CCN(CC(=O)O)CCN(CC(=O)*)CCN(CC(=O)O)CC1; Bpa = N[C@@H](Cc1ccc(C(=O)c2ccccc2)cc1)C(=O)O; d2Nal = N[C@H](Cc1ccc2ccccc2c1)C(=O)O; azaGly = NNC(=O)O; Sar = CNCC(=O)O A value given as a limit tells only on which side of the number the result lay.
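Further: Cell-associated radioactivity on confluent EFO-27 monolayers in 96-well plates, measured by microplate scintillation counting.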

The first assay has as its system LHRH binding sites on human ovarian cancer cells (EFO-27).
Details: not given
Molecule `CN(CC(N)=O)NC(=O)[C@@H]1CCCN1C(=O)[C@H](Cc1ccc(C(=O)c2ccccc2)cc1)NC(=O)[C@H](Cc1c[nH]c2ccccc12)NC(=O)[C@@H](CCCNC(=N)N)NC(=O)[C@H](Cc1c[nH]cn1)NC(=O)[C@H](CO)NC(=O)[C@H](Cc1c[nH]c2ccccc12)NC(=O)[C@H](CCCNC(=N)N)NC(=O)[C@@H](Cc1ccc2ccccc2c1)NC(=O)CN1CCN(CC(=O)O)CCN(CC(=O)O)CCN(CC(=O)O)CC1` [compound 2967] had a concentration giving a half-maximal response (EC50) of 440 nM.

In turn, `N=C(N)NCCC[C@H](NC(=O)[C@@H](Cc1ccc2ccccc2c1)NC(=O)CN1CCN(CC(=O)O)CCN(CC(=O)O)CCN(CC(=O)O)CC1)C(=O)N[C@@H](Cc1c[nH]c2ccccc12)C(=O)N[C@@H](CO)C(=O)N[C@@H](Cc1c[nH]cn1)C(=O)N[C@H](CCCNC(=N)N)C(=O)N[C@@H](Cc1c[nH]c2ccccc12)C(=O)N[C@@H](Cc1ccc(C(=O)c2ccccc2)cc1)C(=O)N1CCC[C@H]1C(=O)NCCCO` [compound 2982] yielded an EC50 of 1130 nM.

The molecule `CNCC(=O)N[C@@H](CCCNC(=N)N)C(=O)N[C@@H](Cc1c[nH]c2ccccc12)C(=O)N[C@@H](CO)C(=O)N[C@@H](Cc1c[nH]cn1)C(=O)N[C@H](CCCNC(=N)N)C(=O)N[C@@H](Cc1c[nH]c2ccccc12)C(=O)N[C@@H](Cc1ccc(C(=O)c2ccccc2)cc1)C(=O)N1CCC[C@H]1C(=O)NCCOCCN` [compound 3007] had an EC50 of 220 nM. In turn, `N=C(N)NCCC[C@H](NC(=O)[C@@H](Cc1ccc2ccccc2c1)NC(=O)CN1CCN(CC(=O)O)CCN(CC(=O)O)CCN(CC(=O)O)CC1)C(=O)N[C@@H](Cc1cccnc1)C(=O)N[C@@H](CO)C(=O)N[C@@H](Cc1c[nH]cn1)C(=O)N[C@H](CCCNC(=N)N)C(=O)N[C@@H](Cc1c[nH]c2ccccc12)C(=O)N[C@@H](Cc1ccc(C(=O)c2ccccc2)cc1)C(=O)N1CCC[C@H]1C(=O)NNC(N)=O` [compound 3109] gave an EC50 of 730 nM.

The molecule `CC(=O)N[C@H](Cc1ccc2ccccc2c1)C(=O)N[C@@H](CCCNC(=N)N)C(=O)N[C@@H](Cc1c[nH]c2ccccc12)C(=O)N[C@@H](CO)C(=O)N[C@@H](Cc1c[nH]cn1)C(=O)N[C@H](CCCNC(=N)N)C(=O)N[C@@H](Cc1c[nH]c2ccccc12)C(=O)N[C@@H](Cc1ccc(C(=O)c2ccccc2)cc1)C(=O)N1CCC[C@H]1C(=O)NCCOCCNC(=O)CN1CCN(CC(=O)O)CCN(CC(=O)O)CCN(CC(=O)O)CC1` [compound 2992] registered an EC50 of 470 ± 20 nM. On the same count and under the same terms, the figure for `N=C(N)NCCC[C@H](NC(=O)[C@@H](Cc1ccc2ccccc2c1)NC(=O)CN1CCN(CC(=O)O)CCN(CC(=O)O)CCN(CC(=O)O)CC1)C(=O)N[C@@H](Cc1c[nH]c2ccccc12)C(=O)N[C@@H](CO)C(=O)N[C@@H](Cc1c[nH]cn1)C(=O)N[C@H](CCCNC(=N)N)C(=O)N[C@@H](Cc1c[nH]c2ccccc12)C(=O)N[C@@H](Cc1ccc(C(=O)c2ccccc2)cc1)C(=O)N1CCC[C@H]1C(=O)NCCOCCNC(=N)N` [compound 2985] is 460 nM; for `CN(CC(=O)N[C@@H](Cc1c[nH]cn1)C(=O)N[C@@H](Cc1c[nH]c2ccccc12)C(=O)N[C@@H](CO)C(=O)N[C@@H](Cc1c[nH]cn1)C(=O)N[C@H](CCCNC(=N)N)C(=O)N[C@@H](Cc1c[nH]c2ccccc12)C(=O)N[C@@H](CC1CCCCC1)C(=O)N1CCC[C@H]1C(=O)NNC(N)=O)C(=O)CN1CCN(CC(=O)O)CCN(CC(=O)O)CCN(CC(=O)O)CC1` [BRU-2718] it is 630 nM; for `CN(CC(=O)N[C@@H](Cc1c[nH]cn1)C(=O)N[C@@H](Cc1c[nH]c2ccccc12)C(=O)N[C@@H](CO)C(=O)N[C@@H](Cc1c[nH]cn1)C(=O)N[C@H](CCCNC(N)=O)C(=O)N[C@@H](Cc1c[nH]c2ccccc12)C(=O)N[C@@H](Cc1ccc(C(=O)c2ccccc2)cc1)C(=O)N1CCC[C@H]1C(=O)NNC(N)=O)C(=O)CN1CCN(CC(=O)O)CCN(CC(=O)O)CCN(CC(=O)O)CC1` [BRU-2729] it is 14200 nM.

As to `N=C(N)NCCC[C@H](NC(=O)[C@H](N)Cc1ccc2ccccc2c1)C(=O)N[C@@H](Cc1c[nH]c2ccccc12)C(=O)N[C@@H](CO)C(=O)N[C@@H](Cc1c[nH]cn1)C(=O)N[C@H](CCCNC(=N)N)C(=O)N[C@@H](Cc1c[nH]c2ccccc12)C(=O)N[C@@H](Cc1ccc(C(=O)c2ccccc2)cc1)C(=O)N1CCC[C@H]1C(=O)NCCOCCNC(=O)CN1CCN(CC(=O)O)CCN(CC(=O)O)CCN(CC(=O)O)CC1` [BRU-2991], the EC50 was no more than 200 nM.

The molecule `CNCC(=O)N[C@@H](CCCNC(=N)N)C(=O)N[C@@H](Cc1c[nH]c2ccccc12)C(=O)N[C@@H](CO)C(=O)N[C@@H](Cc1c[nH]cn1)C(=O)N[C@H](CCCNC(=N)N)C(=O)N[C@@H](Cc1c[nH]c2ccccc12)C(=O)N[C@@H](Cc1ccc(C(=O)c2ccccc2)cc1)C(=O)N1CCC[C@H]1C(=O)NCCCCNC(=O)CN1CCN(CC(=O)O)CCN(CC(=O)O)CCN(CC(=O)O)CC1` [compound 3041] displayed an EC50 of 360 ± 20 nM. Same read-out and setting: as for `N=C(N)NCCC[C@H](NC(=O)[C@@H](Cc1ccc2ccccc2c1)NC(=O)CN1CCN(CC(=O)O)CCN(CC(=O)O)CCN(CC(=O)O)CC1)C(=O)N[C@@H](Cc1c[nH]c2ccccc12)C(=O)N[C@@H](CO)C(=O)N[C@@H](Cc1cscn1)C(=O)N[C@H](CCCNC(=N)N)C(=O)N[C@@H](Cc1c[nH]c2ccccc12)C(=O)N[C@@H](Cc1ccc(C(=O)c2ccccc2)cc1)C(=O)N1CCC[C@H]1C(=O)NNC(N)=O` [compound 2958], the figure is 710 nM; as for `CN(CC(=O)N[C@@H](Cc1c[nH]cn1)C(=O)N[C@@H](Cc1c[nH]c2ccccc12)C(=O)N[C@@H](CO)C(=O)N[C@@H](Cc1c[nH]cn1)C(=O)N[C@H](CCCNC(=N)N)C(=O)N[C@@H](Cc1c[nH]c2ccccc12)C(=O)N[C@@H](Cc1cccc2ccccc12)C(=O)N1CCC[C@H]1C(=O)NNC(N)=O)C(=O)CN1CCN(CC(=O)O)CCN(CC(=O)O)CCN(CC(=O)O)CC1` [BRU-2720], 540 nM.

Staying with this assay, now noted: EFO-27 cells, competition with [125I-Tyr8]BRU-2477, 90 min.
Molecule `N=C(N)NCCC[C@H](NC(=O)[C@@H](Cc1ccc2ccccc2c1)NC(=O)CN1CCN(CC(=O)O)CCN(CC(=O)O)CCN(CC(=O)O)CC1)C(=O)N[C@@H](Cc1c[nH]c2ccccc12)C(=O)N[C@@H](CO)C(=O)N[C@@H](Cc1c[nH]cn1)C(=O)N[C@H](CCCNC(=N)N)C(=O)N[C@@H](Cc1c[nH]c2ccccc12)C(=O)N[C@@H](Cc1ccc(C(=O)c2ccccc2)cc1)C(=O)N1CCC[C@H]1C(=O)NCC(=O)N[C@@H](Cc1ccccc1)C(N)=O` [compound 2980] ({DOTA}-[d2Nal]RWSH[dR]W[Bpa]PGF-NH2) returned an EC50 of 970 nM. The same measure, in the same setting: as for `CCN=C(NCC)NCCCC[C@@H](NC(=O)[C@H](Cc1c[nH]cn1)NC(=O)[C@H](CO)NC(=O)[C@H](Cc1c[nH]c2ccccc12)NC(=O)[C@H](Cc1c[nH]cn1)NC(=O)CN(C)C(=O)CN1CCN(CC(=O)O)CCN(CC(=O)O)CCN(CC(=O)O)CC1)C(=O)N[C@@H](Cc1c[nH]c2ccccc12)C(=O)N[C@@H](Cc1ccc(C(=O)c2ccccc2)cc1)C(=O)N1CCC[C@H]1C(=O)NNC(N)=O` [BRU-2880], the figure is 8020 nM.

On to `N=C(N)NCCC[C@H](NC(=O)[C@H]1Cc2c([nH]c3ccccc23)CN1C(=O)CNC(=O)CN1CCN(CC(=O)O)CCN(CC(=O)O)CCN(CC(=O)O)CC1)C(=O)N[C@@H](Cc1c[nH]c2ccccc12)C(=O)N[C@@H](CO)C(=O)N[C@@H](Cc1c[nH]cn1)C(=O)N[C@H](CCCNC(=N)N)C(=O)N[C@@H](Cc1c[nH]c2ccccc12)C(=O)N[C@@H](Cc1ccc(C(=O)c2ccccc2)cc1)C(=O)N1CCC[C@H]1C(=O)NNC(N)=O` [BRU-3068], for which a half-maximal response (EC50) required 240 nM.

The assay is the same for the next values; noted with them: Table 5: modifications of amino acids at positions 1 and 2; in vitro binding on EFO-27 cells.
`CN(CC(=O)N[C@@H](Cc1ccccc1)C(=O)N[C@@H](Cc1c[nH]c2ccccc12)C(=O)N[C@@H](CO)C(=O)N[C@@H](Cc1c[nH]cn1)C(=O)N[C@H](CCCNC(=N)N)C(=O)N[C@@H](Cc1c[nH]c2ccccc12)C(=O)N[C@@H](Cc1ccc(C(=O)c2ccccc2)cc1)C(=O)N1CCC[C@H]1C(=O)NNC(N)=O)C(=O)CN1CCN(CC(=O)O)CCN(CC(=O)O)CCN(CC(=O)O)CC1` [BRU-2738] ({DOTA}-[Sar]FWSH[dR]W[Bpa]P[azaGly]-NH2) gave a half-maximal effective concentration (EC50) of 1220 nM. With `CN(CC(=O)N[C@@H](CCCCN)C(=O)N[C@@H](Cc1c[nH]c2ccccc12)C(=O)N[C@@H](CO)C(=O)N[C@@H](Cc1c[nH]cn1)C(=O)N[C@H](CCCNC(=N)N)C(=O)N[C@@H](Cc1c[nH]c2ccccc12)C(=O)N[C@@H](Cc1ccc(C(=O)c2ccccc2)cc1)C(=O)N1CCC[C@H]1C(=O)NNC(N)=O)C(=O)CN1CCN(CC(=O)O)CCN(CC(=O)O)CCN(CC(=O)O)CC1` [BRU-2871] ({DOTA}-[Sar]KWSH[dR]W[Bpa]P[azaGly]-NH2), the 50% effective concentration (EC50) worked out at 10000 nM. On the same count and under the same terms, as for `N=C(N)NCCC[C@H](NC(=O)[C@H]1Cc2ccccc2CN1C(=O)CNC(=O)CN1CCN(CC(=O)O)CCN(CC(=O)O)CCN(CC(=O)O)CC1)C(=O)N[C@@H](Cc1c[nH]c2ccccc12)C(=O)N[C@@H](CO)C(=O)N[C@@H](Cc1c[nH]cn1)C(=O)N[C@H](CCCNC(=N)N)C(=O)N[C@@H](Cc1c[nH]c2ccccc12)C(=O)N[C@@H](Cc1ccc(C(=O)c2ccccc2)cc1)C(=O)N1CCC[C@H]1C(=O)NNC(N)=O` [BRU-3067], the figure is 510 nM; as for `CN(CC(=O)N[C@@H](Cc1cncn1C)C(=O)N[C@@H](Cc1c[nH]c2ccccc12)C(=O)N[C@@H](CO)C(=O)N[C@@H](Cc1c[nH]cn1)C(=O)N[C@H](CCCNC(=N)N)C(=O)N[C@@H](Cc1c[nH]c2ccccc12)C(=O)N[C@@H](Cc1ccc(C(=O)c2ccccc2)cc1)C(=O)N1CCC[C@H]1C(=O)NNC(N)=O)C(=O)CN1CCN(CC(=O)O)CCN(CC(=O)O)CCN(CC(=O)O)CC1` [BRU-2759], 10000 nM.

Staying with this assay, now noted: Table 8: N-substituted amino acid at position 1 and Gly as linker; in vitro binding on EFO-27 cells.
`COCCN(CC(=O)N[C@@H](Cc1c[nH]cn1)C(=O)N[C@@H](Cc1c[nH]c2ccccc12)C(=O)N[C@@H](CO)C(=O)N[C@@H](Cc1c[nH]cn1)C(=O)N[C@H](CCCNC(=N)N)C(=O)N[C@@H](Cc1c[nH]c2ccccc12)C(=O)N[C@@H](Cc1ccc(C(=O)c2ccccc2)cc1)C(=O)N1CCC[C@H]1C(=O)NNC(N)=O)C(=O)CNC(=O)CN1CCN(CC(=O)O)CCN(CC(=O)O)CCN(CC(=O)O)CC1` [compound 2796]: the EC50 is 340 nM.

By EC50 is commonly meant the concentration giving half of the maximal effect.

The values above are taken from patent publication US20120045393A1 (priority 2009, published 2012).
